{"source": "paper PMC3266934", "about": "“The Murine Coronavirus Hemagglutinin-esterase Receptor-binding Site: A Major Shift in Ligand Specificity through Modest Changes in Architecture” (PLoS Pathogens, 2012)", "target": "T1, MHV-S HE ectodomain (HE / HE^0) (Murine hepatitis virus strain S, UniProt P31614)", "T1 construct": "HEK293T or HEK293 GnTI(-); codon-optimized synthetic gene; homodimer", "T1 sequence (P31614 25-403)": "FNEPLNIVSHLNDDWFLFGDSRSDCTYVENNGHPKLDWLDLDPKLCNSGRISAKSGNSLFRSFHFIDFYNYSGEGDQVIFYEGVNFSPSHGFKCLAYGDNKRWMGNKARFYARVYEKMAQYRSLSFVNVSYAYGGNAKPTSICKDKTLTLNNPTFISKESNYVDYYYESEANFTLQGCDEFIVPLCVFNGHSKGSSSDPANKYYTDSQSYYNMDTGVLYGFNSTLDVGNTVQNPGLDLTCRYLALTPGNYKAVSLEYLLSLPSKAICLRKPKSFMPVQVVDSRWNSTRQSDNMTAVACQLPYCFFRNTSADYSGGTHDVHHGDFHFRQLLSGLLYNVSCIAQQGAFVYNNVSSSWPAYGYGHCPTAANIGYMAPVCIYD", "experiment": "GC-MS of enzymatic de-O-acetylation", "type": "biochemical", "conditions": "sialate-4-O-acetylesterase site; thrombin-released ectodomain"}
{"smiles": "CO[C@]1(C(=O)O)C[C@H](OC(C)=O)[C@@H](NC(C)=O)[C@H]([C@H](O)[C@H](O)COC(C)=O)O1", "note": "[αNeu4,5,9Ac32Me, 5-N-acetyl-4,9-di-O-acetylneuraminic acid α-methylglycoside]", "values": [{"measurement": "GC-MS of enzymatic de-O-acetylation", "value": "retained proper sialate-4-O-acetylesterase activity when assayed for substrate specificity with a synthetic di-O-acetylated Sia"}]}
